What was measured:
[1] = test system: Ku812-Luc+ (BCR-ABL+CML blast crisis) cells; experiment: In vivo imaging of chemotherapy-induced apoptosis (AMN107); design: species or system mice; details: 100 mg/kg IP; day 5
Description: Subcutaneous tumors were established using Ku812-Luc+ (BCR-ABL+CML blast crisis) cells in NCr nude mice. When tumors were ˜1 cm, mice underwent bioluminescence imaging (BLI) to determine baseline tumor burden, followed by treatment with either AMN107 (nilotinib) at 100 mg/kg intraperitoneally (IP), or with vehicle. After 3 doses, animals were injected with 20 μg of LDH-Alexa750. Fluorescence imaging (FL) was performed 24 and 48 hrs after probe injection (day 4 and 5 of treatment) and BLI was repeated on day 5 of treatment (FIG. 9A).

apoptotic cells [2] = experiment: Staining requirements (temperature, calcium) of cLDHB and Annexin V; type: cell-based
Description: To determine if cLDHB is actively transported into cells, staining was performed at room temperature and at 4° C.
A major limitation of Annexin V staining is the requirement for supra-physiological concentrations of calcium (Tait, J. F., D. F. Gibson, and C. Smith, Anal Biochem, 2004. 329: 112-9). To determine whether cLDHB staining required calcium, Annexin V and cLDHB staining was performed in PBS (without calcium or magnesium) or in Annexin Binding Buffer (with 2.5 mM calcium).

apoptotic cells [3] = experiment: Homogeneous multiwell apoptosis assay in normal growth medium; type: cell-based; details: e.g., RPMI with 10% FBS, flow cytometry or High-Content Microscopy
HeLa cells [4] = experiment: FACS staining of camptothecin-treated apoptotic HeLa cells; type: cell-based; details: for percent apoptotic cells as measured with the probe: camptothecin; for cell staining over time (FACS): 12 h, 24 h, annexin binding buffer; for uptake by apoptotic HeLa cells (FACS) / uptake by control untreated HeLa cells (FACS): FIG. 6
Description: HeLa cells (5×10^5 in 10 cm plates) maintained in DMEM with 10% FBS were contacted with 5 μM camptothecin to induce apoptosis. Cell staining by FITC-labeled Annexin V (Abcam, Cambridge, Mass.) or Cy5.5-labeled chicken LDH (1 μL) prepared as described in Example 1, was measured by fluorescence-activated cell sorting (FACS) analysis (with cells in annexin binding buffer (Abcam)) 12 h, 24 h, and 48 h later. Untreated HeLa cells served as negative controls.
Staining by Annexin V is known to require the presence of calcium. […] HeLa cells treated with camptothecin to induce apoptosis as in Example 9 were stained with FITC-labeled Annexin V (Abcam, Cambridge, Mass.) or Cy5.5-labeled chicken LDH in calcium-containing Annexin buffer or in calcium-free PBS. Stained cells were analyzed by FACS analysis as in Example 9.
HeLa cells (5×10^5 in 10 cm plates) maintained in DMEM with 10% FBS were contacted with 5 μM camptothecin to induce apoptosis. Cell staining was done in the media: (i) annexin buffer, (ii) DMEM supplemented with 1% FBS; (iii) DMEM supplemented with 2% FBS; (iii) DMEM supplemented with 5% FBS; (iv) DMEM supplemented with 10% FBS. For cell staining FITC-labeled Annexin V (Abcam, Cambridge, Mass.) or Cy5.5-labeled chicken LDH (1 μL) prepared as described in Example 1, was used to for FACS analysis (cells in annexin binding buffer (Abcam)) 48 h later. Untreated HeLa cells served as negative controls. […]

HeLa cells [5] = experiment: Confocal microscopy of stained apoptotic HeLa cells; type: cell-based
RS4;11 cells = experiment: FACS staining of RS4;11 cells treated with NVP-LAQ824; type: cell-based; details: RS4;11, 50 nM NVP-LAQ824, 24 h
Description: RS4;11 is a MLL-AF4 fusion transcript-positive t(4;11) pre-B ALL cell line that is highly resistant to chemotherapy and radiation. In this experiment RS4;11 cells (1×10^6) were treated with 50 nM NVP-LAQ824 (Novartis Pharma, Basel, Switzerland) for 24 h and then contacted with FITC-labeled Annexin V (Abcam, Cambridge, Mass.) or Cy5.5-labeled chicken LDH and analyzed by FACS as in Example 9. NVP-LAQ824 is a potent hydroxamic acid-derived histone deacetylase inhibitor that induces apoptosis in nanomolar concentrations in myeloid leukemia cell lines, multiple myeloma, and patient samples. Catley L et al. (2003) Blood 102:2615-22.
In a related experiment, RS4;11 cells were treated with 50 nM NVP-LAQ824 in culture media for 24 h and then stained with FITC-labeled Annexin V or A680-labeled human LDH-B in either Annexin buffer or culture media. Apoptosis was measured by FACS analysis. Results indicated a significant difference between 11-12 percent apoptotic cells as measured with FITC-labeled Annexin V in Annexin buffer versus only 4 percent apoptotic cells as measured with FITC-labeled Annexin V in culture media. In contrast, results indicated 11-12 percent apoptotic cells as measured with A680-labeled LDH-B, whether in Annexin buffer or culture media.

THP-1 cells [6] = experiment: Competition for Annexin V and LDHB binding to apoptotic THP-1 cells; type: cell-based; details: probe 0.1 μM; for staining of apoptotic cells in the presence of excess unlabeled Annexin V: 5- and 10-fold excess
Description: To determine whether physiological levels of LDH may preclude binding of a LDH probe, the ability of excess unlabeled cLDHB and Annexin V to compete for binding of apoptotic cells by FITC conjugated Annexin V and cLDHB was assessed.
Apoptosis was induced in THP-1 cells with LAQ824 (50 nM, 18 hrs), and cells were stained with either Annexin V-FITC or cLDHB-FITC at a final concentration of 0.1 μM. For competition, staining was performed in the presence of excess unlabeled LDHB or Annexin V.

THP-1 cells [7] = experiment: Staining of THP-1 cells treated with HDAC inhibitor LAQ824; type: cell-based; details: THP-1, LAQ824 50 nM, 18 hrs
Description: To correlate cLDHB staining with other measures of apoptosis, a fluorescent probe that binds to activated caspases (pan-caspase-FLICA, Immunochemistry Tech) was used. THP-1 cells were treated with the HDAC inhibitor LAQ824 (50 nM, 18 hrs) to induce apoptosis.
Similarly, we asked whether the […] proteins performed comparably to purified recombinant LDH.

hepatocyte apoptosis = experiment: In vivo NIR imaging of fulminant hepatic failure (anti-Fas antibody); design: species or system mice; details: liver region; 10 μg probe; 25 hrs after probe injection
Description: This model was used to compare LDH to Annexin V for near infrared (NIR) imaging of apoptosis. Alexa750-NHS was conjugated to Annexin V (Biovision) and chicken LDHB (XpressBio) at a labeling ratio of 2:1 per mole of protein based on prior optimization. A total of 10 male NCr nude mice were injected with 5 μg of anti-Fas antibody (Jo2, Pharmingen), and 10 animals were injected with 5 μg of an isotype-matched control antibody. Two hours later, mice were injected with 10 μg of either LDH-Alexa750 or Annexin V-Alexa750. Mice underwent NIR fluorescence imaging (IVIS Spectrum, Caliper) 25 hrs after probe injection (FIG. 8A). After spectral unmixing and background subtraction (Living Images software package), regions of interest were used to quantify fluorescence localized to the liver region (FIG. 8A), as indicated with arrowheads.

[8] = calcium-containing Annexin V buffer

Molecule: Cc1cn(-c2cc(NC(=O)c3ccc(C)c(Nc4nccc(-c5cccnc5)n4)c3)cc(C(F)(F)F)c2)cn1 [AMN107, nilotinib]
- difference between treated animals and vehicle-treated controls by BLI [1]: 2 log
- tumor response by BLI [1]: tumor regression

Molecule: Annexin V: fluorescently labeled Annexin V probe used as comparator; FITC-labeled in Example 12 [reference compound]
- staining in PBS (without calcium or magnesium) compared to Annexin Binding Buffer (2.5 mM calcium) (apoptotic cells [2]): significantly decreased
- staining / quantification of apoptosis with probe added directly to normal growth medium (apoptotic cells [3]): No Annexin V staining
- percent apoptotic cells as measured with the probe (HeLa cells [4]; FBS 10 percent, HeLa, 48 h): about 15%
- percent apoptotic cells as measured with the probe (HeLa cells [4]; FBS zero, HeLa, 48 h): about 50%
- change of staining with increasing amounts of FBS (FACS) (HeLa cells [4]; HeLa treated with camptothecin): significantly decreased

Molecule: Cy5.5-labeled Annexin V: Cy5.5-labeled Annexin V (Abcam) [reference compound]
- staining pattern (confocal microscopy) (HeLa cells [5]): membranous

Molecule: Cy5.5-labeled chicken LDH: chicken lactate dehydrogenase (LDH-B) labeled with Cy5.5 N-hydroxysuccinimide ester as described in Example 1
- apoptosis over background levels as measured with the probe (RS4;11 cells): only a mild increase
- staining compared to FITC-Annexin V (RS4;11 cells): comparable
- staining pattern (confocal microscopy) (HeLa cells [5]): punctate cytoplasmic
- proportion of apoptotic cells detected compared to FITC-labeled Annexin V (HeLa cells [4]; HeLa, 5 μM camptothecin): comparable
- cell staining over time (FACS) (HeLa cells [4]; HeLa, 5 μM camptothecin, 48 h): progressively stained positive
- staining of apoptotic cells (FACS) (HeLa cells [4]; [8]): strongly and equally positive
- staining of apoptotic cells (FACS) (HeLa cells [4]; calcium-free PBS): strongly and equally positive
- percent apoptotic cells as measured with the probe (HeLa cells [4]; over the range FBS zero to 10 percent, HeLa, 48 h): about 65%

Molecule: FITC-labeled Annexin V: FITC-labeled Annexin V (Abcam), phosphatidylserine-binding apoptosis probe [reference compound]
- apoptosis over background levels as measured with the probe (RS4;11 cells): only a mild increase
- apoptotic cells as measured with the probe (RS4;11 cells; staining in culture media): 4%
- staining of apoptotic cells in the presence of excess unlabeled Annexin V (THP-1 cells [6]): abrogated
- staining pattern (confocal microscopy) (HeLa cells [5]): membranous
- cell staining over time (FACS) (HeLa cells [4]; HeLa, 5 μM camptothecin, 48 h): progressively stained positive
- staining of apoptotic cells (FACS) (HeLa cells [4]; [8]): strongly positive
- staining of apoptotic cells (FACS) (HeLa cells [4]; calcium-free PBS): essentially not at all

Molecule: FITC-labeled chicken LDH: chicken LDH-B labeled with fluorescein isothiocyanate
- staining of apoptotic cells in the presence of excess unlabeled Annexin V (THP-1 cells [6]): no effect
- staining of apoptotic cells in the presence of excess unlabeled LDHB (THP-1 cells [6]; up to 100-(10 μM) and 350-fold (35 μM) excess): only marginally altered
- staining pattern (confocal microscopy) (HeLa cells [5]): punctate cytoplasmic

Molecule: LDHB: LDHB not fused to GST, served as a positive control
- uptake by / staining of apoptotic cells (FACS) (HeLa cells [4]; HeLa, 5 μM camptothecin, 48 h, FIG. 5): stained apoptotic cells

Molecule: cLDHB-A680: chicken LDHB labeled with A680 (Alexa 680)
- coincidence of staining with caspase activation (pan-caspase-FLICA) (THP-1 cells [7]): entirely coincident

B1: labeled ADH: Cy5.5-labeled yeast alcohol dehydrogenase (Alexa 680-labeled per FIG. 6 legend) (conjugate, UniProt P00330 2-348, looked up)
Alcohol dehydrogenase 1: SIPETQKGVIFYESHGKLEYKDIPVPKPKANELLINVKYSGVCHTDLHAWHGDWPLPVKLPLVGGHEGAGVVVGMGENVKGWKIGDYAGIKWLNGSCMACEYCELGNESNCPHADLSGYTHDGSFQQYATADAVQAAHIPQGTDLAQVAPILCAGITVYKALKSANLMAGHWVAISGAAGGLGSLAVQYAKAMGYRVLGIDGGEGKEELFRSIGGEVFIDFTKEKDIVGAVLKATDGGAHGVINVSVSEAAIEASTRYVRANGTTVLVGMPAGAKCCSDVFNQVVKSISIVGSYVGNRADTREALDFFARGLVKSPIKVVGLSTLPEIYEKMEKGQIVGRYVVDTSK
modifications: Cy5.5 or Alexa 680 label
- uptake by apoptotic HeLa cells (FACS) (HeLa cells [4]; 5 μM camptothecin): taken up
- uptake by control untreated HeLa cells (FACS) (HeLa cells [4]): not by control untreated HeLa cells

B2: labeled MDH: Cy5.5-labeled E. coli malate dehydrogenase (Alexa 680-labeled per FIG. 6 legend) (conjugate, UniProt P61889 1-312, looked up)
Malate dehydrogenase: MKVAVLGAAGGIGQALALLLKTQLPSGSELSLYDIAPVTPGVAVDLSHIPTAVKIKGFSGEDATPALEGADVVLISAGVARKPGMDRSDLFNVNAGIVKNLVQQVAKTCPKACIGIITNPVNTTVAIAAEVLKKAGVYDKNKLFGVTTLDIIRSNTFVAELKGKQPGEVEVPVIGGHSGVTILPLLSQVPGVSFTEQEVADLTKRIQNAGTEVVEAKAGGGSATLSMGQAAARFGLSLVRALQGEQGVVECAYVEGDGQYARFFSQPLLLGKNGVEERKSIGTLSAFEQNALEGMLDTLKKDIALGEEFVNK
modifications: Cy5.5 or Alexa 680 label
- uptake by apoptotic HeLa cells (FACS) (HeLa cells [4]; 5 μM camptothecin): taken up
- uptake by control untreated HeLa cells (FACS) (HeLa cells [4]): not by control untreated HeLa cells

B3: Annexin V-Alexa750: Annexin V (Biovision) conjugated to Alexa750-NHS at a labeling ratio of 2:1 (conjugate, UniProt P08758 2-320, looked up)
Annexin A5: AQVLRGTVTDFPGFDERADAETLRKAMKGLGTDEESILTLLTSRSNAQRQEISAAFKTLFGRDLLDDLKSELTGKFEKLIVALMKPSRLYDAYELKHALKGAGTNEKVLTEIIASRTPEELRAIKQVYEEEYGSSLEDDVVGDTSGYYQRMLVVLLQANRDPDAGIDEAQVEQDAQALFQAGELKWGTDEEKFITIFGTRSVSHLRKVFDKYMTISGFQIEETIDRETSGNLEQLLLAVVKSIRSIPAYLAETLYYAMKGAGTDDHTLIRVMVSRSEIDLFNIRKEFRKNFATSLYSMIKGDTSGDYKKALLLLCGEDD
modifications: Alexa Fluor 750 label
- mean signal intensity (photons/sec/ROI) of anti-Fas antibody treated animals above IgG control antibody treated animals (hepatocyte apoptosis): 1.8 fold

From patent publication US8999661B2, “Compositions for detecting cell death and methods of use thereof” (Dana-Farber Cancer Institute, Inc., priority 2008, dated 2015)
